Laboratory results taken from the supplement of paper PMC8633005.

Key:
Experiment in all cases: drug sensitivity score (DSS) (DSS (unitless, 0-50 scale)); higher = more sensitive (stronger viability inhibition); extreme values may be limits of the assay
Conditions in all cases: 72 h; culture: 2D
Bowes = system: Bowes
Procedure, shortened: (§1)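 Drug sensitivity scores, modified area-under-curve measures, were derived from dose-response curves fitted in the in-house Breeze software. The curves came from melanoma cell lines and patient-derived melanoma cultures (1000–1500 cells per well) grown in 2D in 384-well plates holding a 527-compound oncology library. Each compound was dissolved in DMSO or water and tested at five concentrations across a 10,000-fold range. Viability was read by CellTiter-Glo luminescence after 72 h at 37 °C.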

WM852 = system: WM852
Procedure, shortened: as §1

WM165 = system: WM165
Procedure, shortened: as §1

FM-MEL-2 = system: FM-MEL-2
Procedure, shortened: as §1

FM-MEL-3 = system: FM-MEL-3
Procedure, shortened: as §1

SK-MEL-2 = system: SK-MEL-2
Procedure, shortened: as §1

FM-MEL-6 = system: FM-MEL-6
Procedure, shortened: as §1

SK-MEL-28 = system: SK-MEL-28
Procedure, shortened: as §1

Structure (SMILES)	drug sensitivity score (Bowes)	drug sensitivity score (WM852)	drug sensitivity score (WM165)	drug sensitivity score (FM-MEL-2)	drug sensitivity score (FM-MEL-3)	drug sensitivity score (SK-MEL-2)	drug sensitivity score (FM-MEL-6)	drug sensitivity score (SK-MEL-28)
CC(C)C[C@H](NC(=O)[C@H](Cc1ccccc1)NC(=O)c1cnccn1)B(O)O [Bortezomib]	24.9	11.8	27	14.1	28.4	26.5	29	27.3
COc1cc(Nc2c(C#N)cnc3cc(OCCCN4CCN(C)CC4)c(OC)cc23)c(Cl)cc1Cl [Bosutinib]	8.2	7.6	8.4	5	3.2	4.7	4.9	8.7
COc1cc(N2CCC(N3CCN(C)CC3)CC2)ccc1Nc1ncc(Cl)c(Nc2ccccc2P(C)(C)=O)n1 [Brigatinib]	1.1	3.1	1.5	0.9	3.3	0.2	1.6	0.5
Cc1cc2c(F)c(Oc3ncnn4cc(OC[C@@H](C)O)c(C)c34)ccc2[nH]1 [Brivanib]	0	0	0	0	0	0	0	0
CCC/C=C/C=C/C(=O)O[C@H]1/C(=C/C(=O)OC)C[C@H]2C[C@H]([C@@H](C)O)OC(=O)C[C@H](O)C[C@@H]3C[C@H](OC(C)=O)C(C)(C)[C@](O)(C[C@@H]4C/C(=C/C(=O)OC)C[C@H](/C=C/C(C)(C)[C@]1(O)O2)O4)O3 [Bryostatin 1]	1.7	4.3	2	0	0.1	0	5.8	1.9
Nc1cc(C(F)(F)F)c(-c2cc(N3CCOCC3)nc(N3CCOCC3)n2)cn1 [Buparlisib]	5.1	6	6.6	6.5	6.7	3.3	6	6.5
Cc1nc2cccc(N)c2c(=O)n1C1CCC(=O)NC1=O (stereo not given) [CC122]	0	0	0	0	0.2	0	1.3	0
CCN1C(=O)CNc2ncc(-c3ccc(-c4nc[nH]n4)nc3C)nc21 [CC-115]	8.2	5	10.4	10.7	8.5	9.8	9.5	6.5
CO[C@H]1CC[C@H](N2C(=O)CNc3ncc(-c4ccc(C(C)(C)O)nc4)nc32)CC1 [CC-223]	4.1	4.2	7.1	7.4	5.1	3.1	5.9	5.2
COc1cc(C)[nH]c(=O)c1CNC(=O)c1c(C)n([C@H](C)C2CCOCC2)c2ccccc12 [CPI-360]	0	0	0	0.2	0	0	0.6	0
Cc1noc2c1-c1ccccc1C(c1ccc(Cl)cc1)=N[C@H]2CC(N)=O [CPI-0610]	3.8	0	6.6	5.2	4.8	1	0	2.8
O=C(O)CCCCC(CCSCc1ccccc1)SCc1ccccc1 (stereo not given) [CPI-613]	0	0	0	0	0	0	0	0
CN(C)c1cc2c(cc1Sc1nc3c(N)nccc3n1CCNCC(C)(C)C)OCO2 [CUDC-305]	13.8	7.2	16.1	9.7	13	10.7	5.3	8.6
COc1ccc(-c2nc(N3CCOCC3)c3sc(CN(C)c4ncc(C(=O)NO)cn4)cc3n2)cn1 [CUDC-907]	22.5	20.8	38.5	33.1	36.9	33.1	32.8	28
CO[C@H]1C(=O)[C@]2(C)[C@@H](OC)C[C@H]3OC[C@@]3(OC(C)=O)[C@H]2[C@H](OC(=O)c2ccccc2)[C@]2(O)C[C@H](OC(=O)[C@H](O)[C@@H](NC(=O)OC(C)(C)C)c3ccccc3)C(C)=C1C2(C)C [Cabazitaxel]	24.3	20.3	23.2	1.6	8.2	14.8	12.1	9.1
COc1cc2nccc(Oc3ccc(NC(=O)C4(C(=O)Nc5ccc(F)cc5)CC4)cc3)c2cc1OC [Cabozantinib]	2.1	0.8	0	2.2	2.5	0	0.2	0
C=CC(=O)Nc1cc2c(Nc3ccc(F)c(Cl)c3)ncnc2cc1OCCCN1CCOCC1 [Canertinib]	8.7	6.5	7.5	8.4	9.1	4.9	6.3	3.5
CCCCCOC(=O)Nc1nc(=O)n([C@@H]2O[C@H](C)[C@@H](O)[C@H]2O)cc1F [Capecitabine]	0	0	0	0	0	0	0	0
CNC(=O)c1ccc(-c2cnc3ncc(Cc4ccc5ncccc5c4)n3n2)cc1F [Capmatinib]	0	0	0	0	0	0	0	0
O=C(O)C1(C(=O)O)CCC1.[NH2-].[NH2-].[Pt+2] [Carboplatin]	0	0	10.2	0.9	2.8	2	7.8	3.2

Structure (SMILES)	drug sensitivity score (Bowes)	drug sensitivity score (WM852)	drug sensitivity score (WM165)	drug sensitivity score (FM-MEL-2)	drug sensitivity score (FM-MEL-3)	drug sensitivity score (SK-MEL-2)	drug sensitivity score (FM-MEL-6)	drug sensitivity score (SK-MEL-28)
CC(C)C[C@H](NC(=O)[C@H](CCc1ccccc1)NC(=O)CN1CCOCC1)C(=O)N[C@@H](Cc1ccccc1)C(=O)N[C@@H](CC(C)C)C(=O)[C@@]1(C)CO1 [Carfilzomib]	31.7	24.5	29.6	11	17.4	22.5	20.4	17
COc1cc2c(Oc3ccc4[nH]c(C)cc4c3F)ncnc2cc1OCCCN1CCCC1 [Cediranib]	1.7	0	0	0	0	0	1.3	0
Cc1ccc(-c2cc(C(F)(F)F)nn2-c2ccc(S(N)(=O)=O)cc2)cc1 [Celecoxib]	0	0	0	0	0	0	0	0
CCS(=O)(=O)N1CCN(c2ccc(Nc3ncc(C(N)=O)c(NC4CC4)n3)cc2)CC1 [Cerdulatinib]	0.8	4	4.6	0	0	0	0.1	0
Cc1cc(Nc2ncc(Cl)c(Nc3ccccc3S(=O)(=O)C(C)C)n2)c(OC(C)C)cc1C1CCNCC1 [Ceritinib]	0.3	1	4.5	4.3	4.3	0	2.6	1.5
CCN(CC)CCCC(C)Nc1ccnc2cc(Cl)ccc12 (stereo not given) [Chloroquine]	7	8.6	9.7	9.4	7.3	7	9.4	8.3
CC(C)[C@H]1C(=O)N[C@@H](CCCNC(=N)N)C(=O)NCC(=O)N[C@@H](CC(=O)O)C(=O)N[C@H](Cc2ccccc2)C(=O)N1C [Cilengitide]	0	2.5	0	0.7	0	0	1	2
N.N.[Cl][Pt][Cl] [Cisplatin]	5.6	5.1	19.2	4.2	5.8	4.4	4.5	9.2
Nc1nc(Cl)nc2c1ncn2[C@H]1C[C@H](O)[C@@H](CO)O1 [Cladribine]	1.4	0.1	4.3	0	2.5	0	4.6	0.8
Nc1nc(Cl)nc2c1ncn2[C@@H]1O[C@H](CO)[C@@H](O)[C@@H]1F [Clofarabine]	10.9	8.6	16.6	2.4	11.8	7.6	9.6	10.8
CCN(CC)CCOc1ccc(C(=C(Cl)c2ccccc2)c2ccccc2)cc1 [Clomifene]	5.8	5.2	6.1	4.1	5.6	4.2	6.3	6.8
COc1c(OCCCN2CCOCC2)ccc2c1N=C(NC(=O)c1cnc(N)nc1)N1CCN=C21 [Copanlisib]	8.3	6.5	6.5	10.2	7.1	3.5	4.3	8.3
CC1(COc2ccc3c(c2)ncn3-c2ccc3cccc(N4CCC(N)CC4)c3n2)COC1 [Crenolanib]	4.6	6.6	7	5	1.5	5.4	5.4	6.8
C[C@@H](Oc1cc(-c2cnn(C3CCNCC3)c2)cnc1N)c1c(Cl)ccc(F)c1Cl [Crizotinib]	0	0	0	0	0	0	0	0
Nc1ccn([C@@H]2O[C@H](CO)[C@@H](O)[C@@H]2O)c(=O)n1 [Cytarabine]	0	0	15.7	1.9	9.3	2.4	7.2	12.1
CC(C)(C)c1nc(-c2cccc(NS(=O)(=O)c3c(F)cccc3F)c2F)c(-c2ccnc(N)n2)s1 [Dabrafenib]	1.1	1.1	18.1	1.5	2.7	0.9	0	20.5
COc1cc2ncnc(Nc3ccc(F)c(Cl)c3)c2cc1NC(=O)/C=C/CN1CCCCC1 [Dacomitinib]	4.1	0.3	0	0.4	1	0	0.4	0
Cc1c2oc3c(C)ccc(C(=O)N[C@@H]4C(=O)N[C@H](C(C)C)C(=O)N5CCC[C@H]5C(=O)N(C)CC(=O)N(C)[C@@H](C(C)C)C(=O)O[C@@H]4C)c3nc-2c(C(=O)N[C@@H]2C(=O)N[C@H](C(C)C)C(=O)N3CCC[C@H]3C(=O)N(C)CC(=O)N(C)[C@@H](C(C)C)C(=O)O[C@@H]2C)c(N)c1=O [Dactinomycin]	24.4	24.2	37.9	16.9	23.5	30.1	25.9	22.2
CO[C@@H](C(=O)N1Cc2[nH]nc(NC(=O)c3ccc(N4CCN(C)CC4)cc3)c2C1)c1ccccc1 [Danusertib]	10.4	3.2	14.5	0	1.5	1	2.9	5.1
O=C(/C=C/c1cccnc1)NCCCCC1CCN(C(=O)c2ccccc2)CC1 [Daporinad]	32.7	27.1	17.5	16.6	14.5	11.3	10.3	16.8
